Measured values reported in patent US20100260791A1, “CHLAMYDIA ANTIGENS” (President and Fellows of Harvard, priority 2007, published 2010).

Tests used:
[1] = test system: C. trachomatis-specific CD8^+ murine T cells; test: IFN-γ ELISA of C. trachomatis-specific CD8+ murine T cells stimulated with peptide-pulsed macrophages; type: cell-based, mouse; conditions: CT242 and CT812 peptides (CD8+ Ag); for IFN-γ Produced −fold: fold-increase of IFN-γ production compared to untreated T-lymphocytes (footnote); for IFN-γ Produced ng: mean (± standard deviation) of duplicate samples
Description: (§1) A library of cells or viruses containing polynucleotides encoding C. trachomatis polypeptides, polypeptide fragments, or fusion proteins may be screened to determine which of the polypeptides, polypeptide fragments, or fusion proteins encoded by the polynucleotides are immunogenic. This may be accomplished by contacting each member of the library with a second cell (e.g., a macrophage or antigen presenting cell) capable of endocytosing the cell of the C. trachomatis library, and displaying portions of the expressed polypeptide of the library on the surface of the second cell (see, e.g., U.S. Pat. No. 6,008,415). The second cell is then contacted with a C. trachomatis-specific T cell (e.g., a C. trachomatis-specific CD4^+ or CD8^+ T cell) from an organism previously infected with C. trachomatis. The second cell may also be fixed (e.g., using paraformaldehyde) prior to contacting with a C. trachomatis-specific T cell. A C. trachomatis-specific T cell capable of binding a presented portion of the C. trachomatis protein, will result in secretion of cytokines. Cytokine secretion (e.g., secretion of IFN-γ, IL-2, or TNF) may be assayed for as known in the art, for example, using an ELISA assay.
(§2) In particular, murine H2^b bone marrow-derived macrophages (BMMs) were seeded at a density of 1×10^5 cells/well in 96-well plates. Fourteen to sixteen hours later, an aliquot of a frozen C. trachomatis library was thawed. The media was aspirated from the BMMs and replaced with a library aliquot and 60 μL of fresh RP-10 media. After 1 hour at 37° C., the BMMs were washed with PBS, 100 μL of RP-10 media added, and the cells incubated an additional hour at 37° C. The BMMs were then fixed with 1% paraformaldehyde for 15 minutes and washed extensively with PBS. […] T cells (either C. trachomatis-specific CD4^+ or CD8^+ murine T cells; 1×10^5) were added to each well in 200 μL of RP-10 media. Plates were incubated for 18-24 hours at 37° C. and the amount of IFN-γ in the supernatant of each well determined through the use of an IFN-γ ELISA assay (Endogen).
(§3) Another way to identify an antigenic peptide is to pulse the polypeptide, polypeptide fragment, or fusion protein onto macrophages and screen for their ability to activate C. trachomatis-specific CD4^+ or CD8^+ murine T cells (as described above). Peptides used in such assays can be synthesized using methods known in the art. A polypeptide, polypeptide fragment, or fusion protein that is capable of activating the C. trachomatis-specific CD4^+ or CD8^+ murine T cells is deemed immunogenic.
Pools of activated CD8^+ murine T cells for use in the identification of immunogenic C. trachomatis polypeptides, polypeptide fragments, and fusion proteins may be obtained using methods known in the art. Typically, in screening for antigens to pathogenic organisms, CD8^+ T cells are prepared from a mammal previously infected with the pathogenic organism. This preparation contains CD8^+ T cells specific for antigens from the pathogen.
C. trachomatis-specific CD8^+ T cells were harvested from mice as follows. A C57BL/6 mouse was injected intraperitoneally with 10^7 infection-forming units of C. trachomatis. Fourteen days later the mouse was euthanized and the spleen was harvested. The spleen was mashed through a 70 μm screen to create a single cell solution of splenocytes. The CD8^+ T cells were isolated from the splenocytes using anti-CD8 antibodies bound to MACS™ magnetic beads and separation protocols standard in the art (see, for e.g., MACS™ technology available from Miltenyi Biotec Inc., Auburn, Calif.). The isolated CD8^+ cells were added to macrophages of the same haplotype (H2^b), which were infected with C. trachomatis 18 hours prior in a 24-well dish. Irradiated splenocytes from a naïve mouse (C57BL/6) were added as feeder cells in media containing IL-2. The cells were incubated for 10 days during which the C. trachomatis-specific CD8^+ T cells were stimulated by the infected macrophages and replicated. […]

[2] = test system: C. trachomatis-specific CD4^+ murine T cells; test: IFN-γ ELISA of C. trachomatis-specific CD4+ murine T cells stimulated with peptide-pulsed macrophages; type: cell-based, mouse; conditions: CT144 peptides (CD4+ Ag); for IFN-γ Produced −fold: fold-increase of IFN-γ production compared to untreated T-lymphocytes (footnote); for IFN-γ Produced ng: mean (± standard deviation) of duplicate samples
Description: as §1, §2, §3
Activated CD4^+ murine T cells for use in the identification of immunogenic C. trachomatis polypeptides, polypeptide fragments, and fusion proteins may be obtained using methods known in the art. Splenocytes from mice were isolated 21 days after infection with C. trachomatis serovar L2 and cultured with irradiated (2,000 rad) bone marrow-derived dendritic cells, UV-inactivated C. trachomatis serovar L2, and naïve syngeneic splenocytes in RP-10 (RPMI medium 1640 supplemented with 10% fetal calf serum, L-glutamine, HEPES, 50 μM 2-β-mercaptoethanol, 50 units/ml penicillin, and 50 μg/ml streptomycin) with a-methyl mannoside and 5% supernatant from Con A-stimulated rat spleen cells. CD8^+ T cells were depleted from the culture by using Dynabeads Mouse CD8 (Invitrogen, Carlsbad, Calif.). The CD4^+ T cells were restimulated every 7 days with C. trachomatis-pulsed bone marrow-derived dendritic cells. Once a C. trachomatis-specific CD4^+ cell line was established, a CD4^+ T cell clone was isolated by limiting dilution.

| Sequence | IFN-γ Produced −fold [1] | IFN-γ Produced ng [1] | IFN-γ Produced −fold [2] [fold] | IFN-γ Produced ng [2] |
| --- | --- | --- | --- | --- |
| FTSSNLDSP [CT812 peptide tested with CD8+ T cells] | 1.0 fold | 0.04 (±0.01) ng | – | – |
| QSVNELVYV [CT812 peptide tested with CD8+ T cells] | 0.3 fold | 0.01 (±0.01) ng | – | – |
| AQGKLIVTNPKSDISFGGRV (listed as Chlamydia trachomatis) [amino acids 67-86 of the CT144 polypeptide] | – | – | 925 | 37.0 (±1.8) ng |
| SNLKRMQKI [CT242 peptide tested with CD8+ T cells] | 10 fold | 0.40 (±0.07) ng | – | – |
| FQEKDADTL [CT812 peptide tested with CD8+ T cells] | 2.0 fold | 0.09 (±0.03) ng | – | – |
| KSDISFGGRVNLADNTVNYS (listed as Chlamydia trachomatis) [amino acids 77-96 of the CT144 polypeptide] | – | – | 40 | 1.6 (±0.4) ng |
| GQSVNELVY [CT812 peptide tested with CD8+ T cells] | 0.8 fold | 0.03 (±0.02) ng | – | – |
| NVTQDLTSSTAKLECTQDLI [CT144 peptide tested with CD4+ T cells] | – | – | 35 | 1.4 (±0.3) ng |
| YQILNQSNL (listed as Chlamydia trachomatis) [amino acids 109-117 of the CT242 polypeptide] | >5,750 fold | >230 ng | – | – |
| FSVTNPVVF (listed as Chlamydia trachomatis) [amino acids 103-111 of the CT812 polypeptide] | 65 fold | 2.6 (±0.3) ng | – | – |
| LEFASCSSL [CT812 peptide tested with CD8+ T cells] | 1.5 fold | 0.06 (±0.01) ng | – | – |
| AKLECTQDLIAQGKLIVTNP [CT144 peptide tested with CD4+ T cells] | – | – | 35 | 1.4 (±0.3) ng |
| LNQSNLKRM (listed as Chlamydia trachomatis) [amino acids 112-120 of the CT242 polypeptide] | 160 fold | 6.5 (±2.4) ng | – | – |
| AALYSTEDL [CT812 peptide tested with CD8+ T cells] | 0.5 fold | 0.02 (±0.02) ng | – | – |
| SQAEGQYRL [CT812 peptide tested with CD8+ T cells] | 0.8 fold | 0.03 (±0.3) ng | – | – |
